The target of one test is Factor XIa (Homo sapiens (Human), UniProt P03951). The test is described as follows: Factor XIa inhibition assay (FLINT) utilizing a fluorophore-quencher pair peptide substrate. The conditions noted are these: 30 min preincubation, kinetic reads over 30 min, read-out: FXIa Kin Inh IC50. It is filed as biochemical. Put shortly: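 FXIa ([…]) preincubated 30 min with compound (11-point 3-fold dilution, top 100 nM, 2% DMSO), then 15 μM quenched FXI Arg146-based peptide added; Tris pH 7.5, CaCl2, BSA, CHAPS. Fluorescence 485/520 nm read kinetically every 5 min over 30 min at RT; IC50 by 4-parameter fit.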

In the next test the target is human plasma kallikrein (Homo sapiens (Human), UniProt P03952). Nature of the test: Kallikrein inhibition assay (FLINT) utilizing a quenched AMC peptide substrate. The following applies: 30 min preincubation, read-out: Kallikrein Kin Inh IC50. It is filed as biochemical. An outline of the steps:
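Fluorogenic Z-Gly-Pro-Arg-AMC cleavage (50 μM substrate, 2 nM kallikrein, Tris pH 7.5, CaCl2, BSA, CHAPS, 2% DMSO) read kinetically at 340/440 nm for 30 min after 30-min compound pre-incubation. Compounds in 11-point 3-fold series from 1 μM; percent inhibition fitted to four-parameter equation for IC50.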

Setting [1] is: 5Fam-KLTRAETV-K5Tamra substrate 15 μM.
Setting [2] is: kinetic reads over 30 min, Z-Gly-Pro-Arg-AMC substrate 50 μM.
[3] abbreviates: 5Fam-[…]-K5Tamra substrate 15 μM.

Molecules are shown by their SMILES. Read-outs that look alike come from different tables or passages of the source.

Sequence of Factor XIa (P03951 388-625): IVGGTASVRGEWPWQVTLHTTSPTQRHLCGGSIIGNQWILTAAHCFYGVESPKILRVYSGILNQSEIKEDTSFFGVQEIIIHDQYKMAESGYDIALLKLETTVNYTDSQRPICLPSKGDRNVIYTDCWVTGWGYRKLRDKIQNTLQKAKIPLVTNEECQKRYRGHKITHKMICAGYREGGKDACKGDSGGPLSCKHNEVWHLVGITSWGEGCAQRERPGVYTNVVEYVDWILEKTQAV
Sequence of Factor XIa (P03951 19-387 partner): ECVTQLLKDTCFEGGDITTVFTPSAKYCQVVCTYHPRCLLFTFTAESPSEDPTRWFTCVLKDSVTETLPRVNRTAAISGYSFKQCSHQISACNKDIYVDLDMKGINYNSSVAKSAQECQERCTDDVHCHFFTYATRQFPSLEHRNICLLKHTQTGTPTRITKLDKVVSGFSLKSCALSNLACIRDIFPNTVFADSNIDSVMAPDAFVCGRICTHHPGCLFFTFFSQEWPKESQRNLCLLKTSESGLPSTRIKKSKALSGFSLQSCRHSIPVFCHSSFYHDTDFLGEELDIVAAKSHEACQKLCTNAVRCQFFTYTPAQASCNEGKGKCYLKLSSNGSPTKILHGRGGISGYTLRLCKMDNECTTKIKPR
Sequence of human plasma kallikrein (P03952 391-638): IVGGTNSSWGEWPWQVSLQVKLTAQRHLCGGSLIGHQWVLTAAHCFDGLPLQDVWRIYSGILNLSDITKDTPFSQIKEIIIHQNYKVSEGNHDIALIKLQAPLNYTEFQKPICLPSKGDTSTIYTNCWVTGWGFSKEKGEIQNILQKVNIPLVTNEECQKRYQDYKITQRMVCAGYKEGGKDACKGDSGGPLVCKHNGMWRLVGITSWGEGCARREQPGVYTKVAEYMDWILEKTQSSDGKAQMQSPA
Sequence of human plasma kallikrein (P03952 20-390 partner): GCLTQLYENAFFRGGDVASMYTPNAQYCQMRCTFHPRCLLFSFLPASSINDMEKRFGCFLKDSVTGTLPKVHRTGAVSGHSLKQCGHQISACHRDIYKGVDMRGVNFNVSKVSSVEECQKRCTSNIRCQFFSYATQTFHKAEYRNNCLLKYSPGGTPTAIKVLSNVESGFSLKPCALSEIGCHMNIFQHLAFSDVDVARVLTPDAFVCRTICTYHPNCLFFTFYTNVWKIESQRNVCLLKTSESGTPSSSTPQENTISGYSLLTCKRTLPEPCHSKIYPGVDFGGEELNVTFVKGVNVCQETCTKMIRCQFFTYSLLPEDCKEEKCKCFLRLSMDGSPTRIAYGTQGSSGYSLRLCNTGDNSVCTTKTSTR

On to `Cn1cc(-c2ccccc2NC(=O)C2CC2)nc1[C@@H]1CC[C@@H]2CC(c3c(-n4cnnn4)ccc(Cl)c3F)=CC(=O)N21` (single isomer, unassigned) [Example 298, N-(2-(2-((3S,8aR*)-7-(3-Chloro-2-fluoro-6-(1H-tetrazol-1-yl)phenyl)-5-oxo-1,2,3,5,8,8a-hexahydroindolizin-3-yl)-1-methyl-1H-imidazol-4-yl)phenyl)cyclopropanecarboxamide], for which the half-inhibitory concentration (IC50) was over 100 nM at Factor XIa (setting [1]) and 1.05 µM on human plasma kallikrein (μM, kinetic reads).
Take `C[C@@H]1C[C@@H](c2ncc(-c3ccc(N)nc3F)[nH]2)N2C(=O)C=C(c3c(-n4cnnn4)ccc(Cl)c3F)C[C@H]12` (single isomer, unassigned) [Example 345, (1*R,3S,8a*R)-3-(5-(6-Amino-2-fluoropyridin-3-yl)-1H-imidazol-2-yl)-7-(3-chloro-2-fluoro-6-(1H-tetrazol-1-yl)phenyl)-1-methyl-2,3,8,8a-tetrahydroindolizin-5(1H)-one]: the IC50 amounted to 2.6 nM on Factor XIa (setting [1]) and 0.0145 µM on human plasma kallikrein (setting [2]).
The corresponding values for `C[C@H]1C[C@@H](c2ncc(-c3ccc(N)nc3F)[nH]2)N2C(=O)C=C(c3c(-n4cnnn4)ccc(Cl)c3F)C[C@@H]12` (single isomer, unassigned) [Example 346, (1*S,3S,8a*S)-3-(5-(6-Amino-2-fluoropyridin-3-yl)-1H-imidazol-2-yl)-7-(3-chloro-2-fluoro-6-(1H-tetrazol-1-yl)phenyl)-1-methyl-2,3,8,8a-tetrahydroindolizin-5(1H)-one] are 1.3 nM and 0.0082 µM.
`Nc1ccc(-c2cnc([C@@H]3CC[C@@H]4C(=O)N(c5cc(Cl)ccc5-n5cnnn5)CC(=O)N43)[nH]2)c(F)n1` (single isomer, unassigned) [Example 360, (6S*,8aR*)-6-(5-(6-amino-2-fluoropyridin-3-yl)-1H-imidazol-2-yl)-2-(5-chloro-2-(1H-tetrazol-1-yl)phenyl)hexahydropyrrolo[1,2-a]pyrazine-1,4-dione]: the results for the IC50 at Factor XIa (setting [3]) and on human plasma kallikrein (setting [2]) were 12 nM and 0.11 µM, respectively.
Consider `O=C1C=C(c2c(-n3cnnn3)ccc(Cl)c2F)C[C@H]2CC[C@@H](c3ncc(-c4ccnc5[nH]ccc45)[nH]3)N12` (single isomer, unassigned) [Example 362, (3S,8aR*)-3-(5-(1H-pyrrolo[2,3-b]pyridin-4-yl)-1H-imidazol-2-yl)-7-(3-chloro-2-fluoro-6-(1H-tetrazol-1-yl)phenyl)-2,3,8,8a-tetrahydroindolizin-5(1H)-one], for which the IC50 at Factor XIa (setting [1]) was 0.1 nM; at human plasma kallikrein (setting [2]), 0.0025 µM.
In the case of `O=C1C=C(c2c(-n3cnnn3)ccc(Cl)c2F)CC2CC[C@@H](c3nc(-c4ccnc(OC(F)F)c4)c(F)[nH]3)N12` (stereo in doubt) [Example 3, (S)-7-[3-Chloro-2-fluoro-6-(tetrazol-1-yl)phenyl]-3-[4-[2-(difluoromethoxy)-4-pyridyl]-5-fluoro-1H-imidazol-2-yl]-2,3,8,8a-tetrahydro-1H-indolizin-5-one], the figures for the IC50 on Factor XIa (setting [3]) and at human plasma kallikrein (setting [2]) were 3.9 nM and 0.0054 µM, respectively.
The corresponding values for `[2H]c1nc(C2CCC3CC(c4c(-n5cnnn5)ccc(Cl)c4F)=CC(=O)N32)[nH]c1-c1ccc(N)nc1F` (stereo in doubt) [Example 154, (3S,8aR)-3-[5-(6-amino-2-fluoro-3-pyridyl)-4-deuterio-1H-imidazol-2-yl]-7-[3-chloro-2-fluoro-6-(tetrazol-1-yl)phenyl]-2,3,8,8a-tetrahydro-1H-indolizin-5-one] are 0.4 nM and 0.0057 µM.
For `O=C1C=C(c2c(-n3cnnn3)ccc(Cl)c2F)C[C@@H]2CC[C@H](c3ncc(-c4ccnc(N5CCC[C@@H](O)C5)c4F)[nH]3)N12` (stereo in doubt) [Example 187, (3R,8aS)-7-(3-chloro-2-fluoro-6-(1H-tetrazol-1-yl)phenyl)-3-(5-(3-fluoro-2-((R)-3-hydroxypiperidin-1-yl)pyridin-4-yl)-1H-imidazol-2-yl)-2,3,8,8a-tetrahydroindolizin-5(1H)-one], the IC50 on Factor XIa (setting [1]) turned out to be 3.7 nM; at human plasma kallikrein (setting [2]), 0.0041 µM.
The corresponding values for `COc1c(-c2cnc(C3CC[C@H]4CC(c5c(-n6cnnn6)ccc(Cl)c5F)=CC(=O)N34)[nH]2)ccnc1N` (stereo in doubt) [Example 382, (3R,8aS)-3-(5-(2-amino-3-methoxypyridin-4-yl)-1H-imidazol-2-yl)-7-(3-chloro-2-fluoro-6-(1H-tetrazol-1-yl)phenyl)-2,3,8,8a-tetrahydroindolizin-5(1H)-one] are 1.4 nM and 0.0277 µM.
As to `Nc1cc(-c2[nH]c([C@@H]3CC[C@@H]4CC(c5c(-n6cnnn6)ccc(Cl)c5F)=CC(=O)N43)nc2F)c(Cl)cn1` [Example 1, (3S,8aR)-3-[5-(2-Amino-5-chloro-4-pyridyl)-4-fluoro-1H-imidazol-2-yl]-7-[3-chloro-2-fluoro-6-(tetrazol-1-yl)phenyl]-2,3,8,8a-tetrahydro-1H-indolizin-5-one], the IC50 at Factor XIa (setting [1]) is 12.6 nM; at human plasma kallikrein (setting [2]), 0.0679 µM.
As to `O=C1C=C(c2c(-n3cnnn3)ccc(Cl)c2F)C[C@H]2CC[C@@H](c3ncc(-c4ccnc(-c5ncc[nH]5)c4F)[nH]3)N12` [Example 2, (3S,8aR)-7-[3-Chloro-2-fluoro-6-(tetrazol-1-yl)phenyl]-3-[5-[3-fluoro-2-(1H-imidazol-2-yl)-4-pyridyl]-1H-imidazol-2-yl]-2,3,8,8a-tetrahydro-1H-indolizin-5-one], the IC50 on Factor XIa (setting [1]) amounted to 1.9 nM; at human plasma kallikrein (setting [2]), 0.0093 µM.
Consider `O=C1C=C(c2c(-n3cnnn3)ccc(Cl)c2F)C[C@H]2CCC(c3ncc(-c4n[nH]cc4Cl)[nH]3)N12` (stereo partly drawn) [Example 4, (8aR)-7-[3-Chloro-2-fluoro-6-(tetrazol-1-yl)phenyl]-3-[5-(4-chloro-1H-pyrazol-3-yl)-1H-imidazol-2-yl]-2,3,8,8a-tetrahydro-1H-indolizin-5-one], for which the IC50 at Factor XIa (setting [1]) came to 91.7 nM; on human plasma kallikrein (setting [2]) it was 0.867 µM.
The corresponding values for `Cc1cc(C(=O)Nc2nccc(-c3cnc([C@@H]4CC[C@@H]5CC(c6c(-n7cnnn7)ccc(Cl)c6F)=CC(=O)N54)[nH]3)c2F)on1` [Example 5, N-[4-[2-[(3S,8aR)-7-[3-Chloro-2-fluoro-6-(tetrazol-1-yl)phenyl]-5-oxo-2,3,8,8a-tetrahydro-1H-indolizin-3-yl]-1H-imidazol-5-yl]-3-fluoro-2-pyridyl]-3-methyl-isoxazole-5-carboxamide] are 4.2 nM and 0.0488 µM.
The corresponding values for `CS(=O)(=O)Nc1cc(-c2[nH]c(C3CCC4CC(c5c(-n6cnnn6)ccc(Cl)c5F)=CC(=O)N43)nc2F)ccn1` (stereo not shown) [Example 6, N-[4-[2-[7-[3-Chloro-2-fluoro-6-(tetrazol-1-yl)phenyl]-5-oxo-2,3,8,8a-tetrahydro-1H-indolizin-3-yl]-4-fluoro-1H-imidazol-5-yl]-2-pyridyl]methanesulfonamide] are 0.6 nM and 0.0066 µM.
For `CS(=O)(=O)Nc1cc(-c2cnc(C3CCC4CC(c5c(-n6cnnn6)ccc(Cl)c5F)=CC(=O)N43)[nH]2)ccn1` (stereo not shown) [Example 7, N-[4-[2-[7-[3-Chloro-2-fluoro-6-(tetrazol-1-yl)phenyl]-5-oxo-2,3,8,8a-tetrahydro-1H-indolizin-3-yl]-1H-imidazol-5-yl]-2-pyridyl]methanesulfonamide], the IC50 at Factor XIa (setting [1]) is 6.4 nM; on human plasma kallikrein (setting [2]), 0.0701 µM.
The corresponding values for `O=C1C=C(c2c(-n3cnnn3)ccc(Cl)c2F)C[C@H]2CC[C@@H](c3ncc(-c4ccc5cc[nH]c5c4)[nH]3)N12` [Example 8] are 3.7 nM and 0.0177 µM.
On to `O=C1C=C(c2c(-n3cnnn3)ccc(Cl)c2F)CC2CC[C@@H](c3nc(-c4ccnc(OC(F)F)c4)c[nH]3)N12` (stereo partly drawn) [Example 10, (S)-7-[3-Chloro-2-fluoro-6-(tetrazol-1-yl)phenyl]-3-[4-[2-(difluoromethoxy)-4-pyridyl]-1H-imidazol-2-yl]-2,3,8,8a-tetrahydro-1H-indolizin-5-one], for which the IC50 at Factor XIa (setting [1]) was 36.1 nM; on human plasma kallikrein (setting [2]), 0.0268 µM.
For `CC(=O)N[C@H](C)c1ccc(-c2[nH]c([C@@H]3CCC4CC(c5c(-n6cnnn6)ccc(Cl)c5F)=CC(=O)N43)nc2F)cc1` (stereo partly drawn) [Example 11, N-[(1R)-1-[4-[2-[(3S)-7-[3-Chloro-2-fluoro-6-(tetrazol-1-yl)phenyl]-5-oxo-2,3,8,8a-tetrahydro-1H-indolizin-3-yl]-4-fluoro-1H imidazol-5-yl]phenyl]ethyl]acetamide], the figures for the IC50 at Factor XIa (setting [1]) and at human plasma kallikrein (setting [2]) were 11.4 nM and 0.0305 µM, respectively.
The corresponding values for `CCOC(=O)NCc1nccc(-c2cnc([C@@H]3CC[C@@H]4CC(c5c(-n6cnnn6)ccc(Cl)c5F)=CC(=O)N43)[nH]2)c1F` [Example 12, Ethyl-N-[[4-[2-[(3S,8aR)-7-[3-Chloro-2-fluoro-6-(tetrazol-1-yl)phenyl]-5-oxo-2,3,8,8a-tetrahydro-1H-indolizin-3-yl]-1H-imidazol-5-yl]-3-fluoro-2-pyridyl]methyl]carbamate] are 2.7 nM and 0.0355 µM.
The corresponding values for `CC(=O)NCc1nccc(-c2cnc([C@@H]3CC[C@@H]4CC(c5c(-n6cnnn6)ccc(Cl)c5F)=CC(=O)N43)[nH]2)c1F` [Example 13, N-[[4 [2-[(3S,8aR)-7-[3-Chloro-2-fluoro-6-(tetrazol-1-yl)phenyl]-5-oxo-2,3,8,8a-tetrahydro-1H-indolizin-3-yl]-1H-imidazol-5-yl]-3-fluoro-2-pyridyl]methyl]acetamide] are 4.2 nM and 0.0686 µM.

For orientation: IC50 means the midpoint of a concentration-inhibition curve.
